Consider 5 compounds from publication PMC6222422, “Synthesis and Biological Evaluation of Novel Indole-Derived Thioureas” (Molecules : A Journal of Synthetic Chemistry and Natural …, 2018).

Read-outs that look alike come from different tables or passages of the source.

One data set deals with BVDV. The data set can be described thus: microbe, parasite or virus in culture. Conditions: for EC50: Bovine viral diarrhea virus isolates and strains, MDBK, in Bos taurus, read-out: BVDV EC50. The class given is cell-based, bovine viral diarrhoea virus.
The subject of the next data set is YFV. Put plainly: microbe, parasite or virus in culture. Conditions: Yellow fever virus, BHK, read-out: YFV EC50. The class given is cell-based.
In a further data set the test system is CV-B5. The data set can be described thus: microbe, parasite or virus in culture. Conditions: Enterovirus B, CVB5, Vero 76, read-out: CV-B5 EC50. The class given is cell-based, coxsackievirus B5.
In another data set the test system is Sb-1. The data set can be described thus: microbe, parasite or virus in culture. Particulars: Enterovirus C, Vero 76, read-out: Sb-1 EC50. The class given is cell-based, poliovirus type-1.
The subject of a further data set is Reo-1. Put plainly: microbe, parasite or virus in culture. The class given is cell-based, reovirus type-1. Conditions: for EC50: Reovirus sp., BHK, read-out: Reo-1 EC50.
The test system of a further data set is RSV. The data set can be described thus: microbe, parasite or virus in culture. In kind it is cell-based, human respiratory syncytial virus. Conditions: for EC50: human respiratory syncytial virus, Vero 76, read-out: RSV EC50.
For the next data set, the system named is VSV. Put plainly: microbe, parasite or virus in culture. In kind it is cell-based. Particulars: Vesicular stomatitis virus, Vero 76, read-out: VSV EC50.
The subject of the next data set is VV. Put plainly: microbe, parasite or virus in culture. The class given is cell-based. Conditions: Orthopoxvirus vaccinia, Vero 76, read-out: VV EC50.
For another data set, the system named is HSV-1. The data set can be described thus: microbe, parasite or virus in culture. The class given is cell-based, human herpes 1. Particulars: Human alphaherpesvirus 1, Vero 76, read-out: HSV-1 EC50.
The nature of data set [1]: in vitro. Conditions: human.
A short description of data set [2]: in vitro. Particulars: cattle (Bos taurus).
Data set [3] can be described thus: in vitro. Particulars: Syrian hamster (Mesocricetus auratus).
Data set [4] in a line: in vitro. Conditions: African green monkey (Cercopithecus aethiops).
Another data set relates to HIV-1. Put plainly: microbe, parasite or virus in culture. Particulars: Human immunodeficiency virus 1, MT4, read-out: HIV-1 EC50.
For data set [5], the system named is BHK cells. Particulars: Syrian hamster (Mesocricetus auratus).
Data set [6] can be described thus: Cytotoxicity, MTT method. Particulars: human. (Tetrazolium assays rely on reduction of a dye to a coloured formazan, in cell work by metabolically active cells.)
Data set [7] is described as follows: Cytotoxicity, MTT method. Particulars: cattle (Bos taurus).
Data set [8] in a line: Cytotoxicity, MTT method. Conditions: Syrian hamster (Mesocricetus auratus).
Data set [9] deals with BHK cells. Put plainly: Cytotoxicity, MTT method. Particulars: read-out: BHK CC50; reduce the proliferation of mock-infected BHK cells by 50% (Table 6).
The nature of data set [10]: Cytotoxicity, MTT method. Particulars: African green monkey (Cercopithecus aethiops).

Consider `S=C(NCCc1ccccc1)NCCc1c[nH]c2ccccc12` [Compound 16, 1-(2-(1H-Indol-3-yl)ethyl)-3-phenethylthiourea], for which the “activity against BVDV (in words)” value in the data set on BVDV is “showed activity”. Besides, the half-maximal effective concentration (EC50) – broadly, the midpoint of the concentration-response curve – in the data set on BVDV is 46 µM; in the data set on YFV, over 18 µM; in the data set with CV-B5, 18 ± 1.7 µM; in the data set on Sb-1, over 100 µM; in the data set with Reo-1, over 18 µM; with RSV, 30 ± 2.6 µM. Besides, the EC50 is over 100 µM in the data set with VSV, over 100 µM in the data set with VV, over 100 µM with HSV-1 and over 49 µM in the data set on HIV-1. In the data set with RSV, the “activity against RSV (in words)” value is listed as “moderately active”. The “cytotoxicity for MDBK cell lines (in words)” value with MDBK cells was “lack of cytotoxicity”. For the same compound, the CC50 in “in vitro [1]” was 49 µM; in the data set “in vitro [2]” it was over 100 µM; in the data set “in vitro [3]”, 18 µM; in “in vitro [4]”, over 100 µM.
Take `C=CCNC(=S)NCCc1c[nH]c2ccccc12` [Compound 18, 1-(2-(1H-Indol-3-yl)ethyl)-3-allylthiourea]: the EC50 in the data set with BVDV is over 100 µM; in the data set on YFV, over 100 µM; with CV-B5 it was over 100 µM; with Sb-1, over 100 µM; with Reo-1, 61 µM; in the data set with RSV, over 100 µM. Further, the EC50 in the data set on VSV, with VV, in the data set on HSV-1 and in the data set with HIV-1 was over 100 µM in each case. Also, the “activity against Reo-1 (in words)” value in the data set with Reo-1 is “not particularly significant”. Further, the CC50 in the data set with BHK cells [5], in the data set “in vitro [1]”, in “in vitro [2]”, in “in vitro [3]” and in the data set “in vitro [4]” was over 100 µM in each case.
On to `CCOC(=O)NC(=S)NCCc1c[nH]c2ccccc12` [Compound 20, 1-(2-(1H-Indol-3-yl)ethyl)-3-ethoxycarbonylthiourea], for which the “activity against BVDV (in words)” value with BVDV was “showed activity”. For the same compound, the EC50 in the data set with BVDV is 35 ± 2.8 µM; in the data set with YFV, over 100 µM; in the data set on CV-B5 it was over 100 µM; in the data set on Sb-1 it was over 100 µM; in the data set with Reo-1, over 100 µM; in the data set on RSV, over 100 µM. Also, the EC50 with VSV, in the data set on VV, with HSV-1 and in the data set on HIV-1 was over 100 µM in each case. In addition, in the data set with MDBK cells, the “cytotoxicity for MDBK cell lines (in words)” value was “lack of cytotoxicity”. The CC50 in the data set with BHK cells [5], in “in vitro [1]”, in the data set “in vitro [2]”, in the data set “in vitro [3]” and in “in vitro [4]” was over 100 µM each time.
With `CCNC(=S)NCCc1c[nH]c2ccccc12` [Compound 22, 1-(2-(1H-Indol-3-yl)ethyl)-3-ethylthiourea], the concentration for a half-maximal effect (EC50) in the data set on BVDV, with YFV, in the data set on CV-B5, in the data set with Sb-1, in the data set with Reo-1 and in the data set with RSV was over 100 µM each time. Besides, the EC50 in the data set on VSV, in the data set with VV, with HSV-1 and in the data set with HIV-1 was over 100 µM in each case. Moreover, the CC50 in the data set “Cytotoxicity, MTT method [6]” is over 100 µM; in the data set “Cytotoxicity, MTT method [7]”, over 100 µM; in “Cytotoxicity, MTT method [8]”, over 100 µM; with BHK cells [9], over 100 µM; in “Cytotoxicity, MTT method [10]”, over 100 µM.
For `CNC(=S)NCCc1c[nH]c2ccccc12` [Compound 25, 1-(2-(1H-Indol-3-yl)ethyl)-3-methylthiourea], the EC50 in the data set with BVDV, with YFV, in the data set on CV-B5, in the data set with Sb-1, in the data set with Reo-1 and in the data set with RSV was over 100 µM in each case. Moreover, the EC50 in the data set with VSV, in the data set with VV, with HSV-1 and with HIV-1 was over 100 µM in each case. For the same compound, the CC50 in “Cytotoxicity, MTT method [6]” is over 100 µM; in the data set “Cytotoxicity, MTT method [7]”, over 100 µM; in “Cytotoxicity, MTT method [8]” it was over 100 µM; in the data set on BHK cells [9], over 100 µM; in the data set “Cytotoxicity, MTT method [10]”, over 100 µM.
